Test results: ChEMBL document CHEMBL1201862, “PubChem BioAssay data set” (2004)
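Results reflect a 48-hour exposure of cells in 96-well plates to compound at five concentrations. Abbreviation: GI50, concentration required for 50% inhibition of growth.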 The source made the active and inactive calls. Rule as the data show it: active = GI50 up to about 1.1 µM and inactive = higher.

Tests used:
Assay in all cases: growth of human tumour cells (NCI), 48 h
[1] = system: 786-0
[2] = system: A498
[3] = system: A549
[4] = system: ACHN
[5] = system: CAKI-1
[6] = system: CCRF-CEM
[7] = system: COLO 205
[8] = system: DLD-1
[9] = system: DMS-114
[10] = system: DMS-273
[11] = system: EKVX
[12] = system: HCC 2998
[13] = system: HCT-116
[14] = system: HCT-15
[15] = system: HL-60
[16] = system: HOP-18
[17] = system: HOP-62
[18] = system: HOP-92
[19] = system: HT-29
[20] = system: IGROV-1
[21] = system: K562
[22] = system: KM-20L2
[23] = system: KM12
[24] = system: LOX IMVI
[25] = system: LXFL 529
[26] = system: M14
[27] = system: M19-MEL
[28] = system: MOLT-4
[29] = system: Malme-3M
[30] = system: NCI-H226
[31] = system: NCI-H23
[32] = system: NCI-H460
[33] = system: NCI-H522
[34] = system: OVCAR-3
[35] = system: OVCAR-4
[36] = system: OVCAR-5
[37] = system: OVCAR-8
[38] = system: RPMI-8226
[39] = system: RXF 631
[40] = system: SF-268
[41] = system: SF-295
[42] = system: SF-539
[43] = system: SK-MEL-28
[44] = system: SK-MEL-2
[45] = system: SK-MEL-5
[46] = system: SK-OV-3
[47] = system: SN12C
[48] = system: SNB-19
[49] = system: SNB-75
[50] = system: SNB-78
[51] = system: SR
[52] = system: SW-620
[53] = system: TK-10
[54] = system: U-251
[55] = system: UACC-257
[56] = system: UACC-62
[57] = system: UO-31
[58] = system: RXF 393
[59] = system: XF498

Measured: GI50

CC(=O)O[C@@H]1CC[C@@]2(C)C(=O)C34C[C@@]5(C)C([C@@H](C)CCCC(C)C)CCC5(C)[C@](O)(O3)C(=O)[C@H]4C2C1(C)C (some centres undefined)
13.5 µM: [14]
inactive: [1] 12.9 µM | [2] 22.2 µM | [3] 13.3 µM | [4] 14 µM | [5] 14.7 µM | [6] 4.3 µM | [7] 14.5 µM | [8] 18 µM | [9] 17.4 µM | [10] 13.4 µM | [11] 18.4 µM | [12] 11.3 µM | [13] 14 µM | [15] 10.2 µM | [16] 15.8 µM | [17] 17.7 µM | [18] 19.1 µM | [19] 13 µM | [20] 15.4 µM | [21] 9.42 µM | [22] 17.4 µM | [23] 11.3 µM | [24] 15.6 µM | [25] 16.7 µM | [26] 13.1 µM | [27] 13.8 µM | [28] 7.74 µM | [29] 18.5 µM | [30] 15.7 µM | [31] 13.4 µM | [32] 6.04 µM | [33] 12.3 µM | [34] 12.3 µM | [35] 13.2 µM | [36] 15.9 µM | [37] 16.5 µM | [38] 13.4 µM | [39] 12.6 µM | [40] 15.8 µM | [41] 16.3 µM | [42] 19.3 µM | [43] 18.9 µM | [44] 19.8 µM | [45] 15 µM | [46] 18.3 µM | [47] 13.2 µM | [48] 16.6 µM | [49] 15.7 µM | [50] 20.8 µM | [51] 16 µM | [52] 11.5 µM | [53] 16.6 µM | [54] 14.3 µM | [55] 17 µM | [56] 18.2 µM | [57] 13.3 µM

COC(=O)C(=O)C(C(=O)C(=O)Nc1ccc([N+](=O)[O-])cc1)c1nc2ccccc2nc1O (centres undefined)
15 µM: [14]
inactive: [1] > 100 µM | [2] > 100 µM | [3] > 100 µM | [4] 55.2 µM | [5] 53.2 µM | [6] > 100 µM | [7] > 100 µM | [8] > 100 µM | [9] > 100 µM | [10] 47.1 µM | [13] > 100 µM | [15] > 100 µM | [16] > 100 µM | [17] 39.6 µM | [18] > 100 µM | [19] 81.5 µM | [20] > 100 µM | [21] 39.1 µM | [22] 22.1 µM | [23] 57.3 µM | [24] > 100 µM | [25] 34.2 µM | [26] 42.2 µM | [27] > 100 µM | [28] > 100 µM | [29] > 100 µM | [30] > 100 µM | [31] > 100 µM | [32] > 100 µM | [33] > 100 µM | [34] > 100 µM | [35] > 100 µM | [37] > 100 µM | [38] > 100 µM | [58] > 100 µM | [39] > 100 µM | [40] > 100 µM | [43] > 100 µM | [44] > 100 µM | [45] 43.6 µM | [46] > 100 µM | [47] > 100 µM | [48] > 100 µM | [49] > 100 µM | [52] > 100 µM | [53] > 100 µM | [54] > 100 µM | [55] 55.7 µM | [56] 19.6 µM | [57] > 100 µM | [59] > 100 µM
